Experimental data from patent publication US20230118577A1, “NEUROACTIVE STEROIDS AND PHARMACEUTICAL COMPOSITION CONTAINING THE SAME” (Brii Biosciences, Inc., priority 2020, published 2023).
Where two headings read alike, the source gives them in different places.

Legend:
GABAA α4β3δ = target: T1, GABAA α4β3δ (Homo sapiens, UniProt P28472+P48169); assay: Automated patch clamp electrophysiology (SyncroPatch), PAM mode, GABAA α4β3δ cell line; format: cell-based; settings: for Emax: maximum fold increase in current relative to Allopregnanolone, read-out: GABAA α4β3δ PAM % Emax (to Allo)
T1 construct: expressed in transfected cells; host or cells: HEK293 expressing the Tetracycline repressor protein
From the text: (§1) Cellular electrophysiology was used to measure the pharmacology properties of the GABA receptor modulators. The GABAA channels are expressed in stable cell lines described herein. The parental cell line used to express the human GABAA channels is the human embryonic kidney (HEK293) cell line expressing the Tetracycline repressor protein to support inducible expression of the target proteins.
(§2) For the GABAA α4β3δ cell line, the α4 and β3 subunits are under control of tetracycline inducible expression system, while the δ subunit is constitutively expressed. For the GABAA α1β2γ2 cell line, the α1 and β2 subunits are under control of tetracycline inducible expression system, whist the γ2 subunit is constitutively expressed.
(§3) Assessment of the compounds against GABAA α1β2γ2 and GABAA α4β3δ was performed using the SyncroPatch automated platform in positive allosteric modulator (PAM) mode. Six concentrations of 20 nM, 62 nM, 185 nM, 555 nM, 1667 nM and 5000 nM were tested across the plate, with a single concentration of compound per well. A minimum of 3 cells were obtained per each concentration of a compound.
(§4) Automated patch clamp-recordings were performed using the SyncroPatch 384PE. The voltage protocol generation and data collection were performed with PatchController384 V1.6.6 and Data Controller V1.6.0. A steady state voltage pulse at −80 mV was applied during the assay.
(§5) The stacked addition protocol was used, in which γ-aminobutyric acid (GABA) was rapidly applied and then washed off from the cell. To test for positive allosteric modulator activity (PAM), first the agonist GABA EC20 (EC20: 10 μM for GABAA α4β3δ channel and 14 μM GABA for the GABAA α1β2γ2 channel) was applied twice (with wash steps in-between) as a control and to show activation reproducibility, followed by a 1-2 minutes pre-incubation of the tested compound and then re-application of GABA EC20 in the presence of a testing compound. Finally, following a further wash step, maximum GABA (10 mM) was applied.
(§6) An Allopregnanolone concentration response was tested as the control PAM on the compound plates. The fold increase was generated using the following equation, (Icomp/Icontrol)−1, where Icomp is the current amplitude in the presence of the compound and Icontrol is the current amplitude in the presence of GABA EC20 alone. This builds an EC50 concentration-response curve, where 0 represents no PAM activity and >0 represents PAM activity.
(§7) A maximum % Emax for each compound is generated using the following equation, (IMaxComp/IAveMaxAllo)*100, where IMaxcomp is the individual maximum fold increase in current for each compound and IAveMaxAllo is the average maximum fold increase generated in the presence of Allopregnanolone. The resultant % Emax values are then averaged. The compound and Allopregnanolone values were obtained from separate cells which were tested in the same compound run. Two GABAA subtypes were tested against each of the compounds as well as the positive control, Allopregnanolone.

GABAA α1β2γ2 = target: T2, GABAA α1β2γ2 (Homo sapiens, UniProt P14867+P47870); assay: Automated patch clamp electrophysiology (SyncroPatch), PAM mode, GABAA α1β2γ2 cell line; format: cell-based; settings: for Emax: maximum fold increase in current relative to Allopregnanolone, GABA EC20 14 μM, read-out: GABAA α1β2γ2 PAM % Emax (to Allo)
T2 construct: expressed in transfected cells; host or cells: HEK293 expressing the Tetracycline repressor protein
From the text: as §1, §2, §3, §4, §5, §6, §7

[1] = PAM mode, HEK293 cells expressing human GABAA α4β3δ, GABA EC20 10 μM, read-out: GABAA α4β3δ PAM EC50
[2] = PAM mode, HEK293 cells expressing human GABAA α1β2γ2, GABA EC20 14 μM, read-out: GABAA α1β2γ2 PAM EC50

T1 sequence (P48169 36-554): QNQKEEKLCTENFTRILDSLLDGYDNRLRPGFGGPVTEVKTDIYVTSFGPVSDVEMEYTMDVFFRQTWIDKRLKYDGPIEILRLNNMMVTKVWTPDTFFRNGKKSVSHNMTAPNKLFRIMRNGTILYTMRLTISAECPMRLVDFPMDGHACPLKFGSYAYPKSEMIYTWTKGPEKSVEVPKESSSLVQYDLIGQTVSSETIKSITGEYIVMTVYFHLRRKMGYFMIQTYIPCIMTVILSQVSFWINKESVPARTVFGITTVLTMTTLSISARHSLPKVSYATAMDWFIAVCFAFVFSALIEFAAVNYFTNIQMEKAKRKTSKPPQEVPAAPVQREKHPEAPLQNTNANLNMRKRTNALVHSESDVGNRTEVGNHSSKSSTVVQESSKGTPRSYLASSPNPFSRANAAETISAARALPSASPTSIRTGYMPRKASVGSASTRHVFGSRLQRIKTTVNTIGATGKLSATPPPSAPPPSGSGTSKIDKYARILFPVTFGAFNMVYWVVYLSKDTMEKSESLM
T1 sequence (P28472 26-473): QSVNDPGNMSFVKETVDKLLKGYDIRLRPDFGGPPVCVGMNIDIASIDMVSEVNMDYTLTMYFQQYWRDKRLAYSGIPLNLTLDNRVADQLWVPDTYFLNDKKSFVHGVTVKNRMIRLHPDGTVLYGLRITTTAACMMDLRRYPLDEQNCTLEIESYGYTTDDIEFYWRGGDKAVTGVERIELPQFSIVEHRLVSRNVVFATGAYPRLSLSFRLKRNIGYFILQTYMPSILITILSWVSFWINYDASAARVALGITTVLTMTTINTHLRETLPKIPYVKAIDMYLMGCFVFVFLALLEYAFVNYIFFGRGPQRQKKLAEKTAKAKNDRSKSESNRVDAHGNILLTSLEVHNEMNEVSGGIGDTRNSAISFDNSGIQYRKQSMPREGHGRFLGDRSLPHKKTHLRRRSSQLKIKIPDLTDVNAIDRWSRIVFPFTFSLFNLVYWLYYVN
T1 sequence (O14764 17-452 partner limits assumed): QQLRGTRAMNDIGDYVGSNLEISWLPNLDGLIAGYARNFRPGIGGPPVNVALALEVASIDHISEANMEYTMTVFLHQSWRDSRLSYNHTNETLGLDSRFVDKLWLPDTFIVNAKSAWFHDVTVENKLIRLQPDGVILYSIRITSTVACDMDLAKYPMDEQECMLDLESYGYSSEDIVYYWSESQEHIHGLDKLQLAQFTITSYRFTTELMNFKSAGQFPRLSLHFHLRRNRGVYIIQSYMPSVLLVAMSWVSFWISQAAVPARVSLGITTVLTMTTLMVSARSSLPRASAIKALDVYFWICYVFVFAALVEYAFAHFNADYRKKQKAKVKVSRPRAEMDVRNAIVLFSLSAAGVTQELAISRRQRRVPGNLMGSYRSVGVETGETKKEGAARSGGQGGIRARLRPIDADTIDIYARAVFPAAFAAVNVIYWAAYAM
T2 sequence (P14867 28-456): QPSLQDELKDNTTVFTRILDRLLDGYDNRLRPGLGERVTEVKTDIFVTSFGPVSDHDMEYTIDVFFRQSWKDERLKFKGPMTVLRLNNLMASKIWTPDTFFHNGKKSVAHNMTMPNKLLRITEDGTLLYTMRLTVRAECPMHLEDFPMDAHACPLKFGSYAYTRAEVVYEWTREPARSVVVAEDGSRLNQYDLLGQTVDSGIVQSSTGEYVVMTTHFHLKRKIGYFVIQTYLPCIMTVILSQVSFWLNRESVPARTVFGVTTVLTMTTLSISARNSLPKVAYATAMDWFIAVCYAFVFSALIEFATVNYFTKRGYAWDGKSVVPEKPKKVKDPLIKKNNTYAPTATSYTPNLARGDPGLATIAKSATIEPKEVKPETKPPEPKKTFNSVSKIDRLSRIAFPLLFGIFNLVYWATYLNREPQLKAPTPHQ
T2 sequence (P47870 25-512 limits assumed): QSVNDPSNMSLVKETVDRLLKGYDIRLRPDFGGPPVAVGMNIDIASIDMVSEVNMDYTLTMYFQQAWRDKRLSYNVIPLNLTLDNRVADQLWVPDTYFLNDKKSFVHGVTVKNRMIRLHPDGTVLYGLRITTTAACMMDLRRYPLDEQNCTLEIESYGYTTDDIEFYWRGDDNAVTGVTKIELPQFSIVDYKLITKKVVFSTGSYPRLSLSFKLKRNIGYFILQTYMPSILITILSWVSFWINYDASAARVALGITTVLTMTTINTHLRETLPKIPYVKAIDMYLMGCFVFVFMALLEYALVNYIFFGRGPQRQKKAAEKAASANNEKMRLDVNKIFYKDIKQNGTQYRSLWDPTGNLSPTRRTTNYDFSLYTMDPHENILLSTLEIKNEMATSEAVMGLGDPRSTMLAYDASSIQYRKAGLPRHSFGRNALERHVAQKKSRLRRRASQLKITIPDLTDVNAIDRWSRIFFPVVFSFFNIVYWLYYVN
T2 sequence (P18507 40-475 partner): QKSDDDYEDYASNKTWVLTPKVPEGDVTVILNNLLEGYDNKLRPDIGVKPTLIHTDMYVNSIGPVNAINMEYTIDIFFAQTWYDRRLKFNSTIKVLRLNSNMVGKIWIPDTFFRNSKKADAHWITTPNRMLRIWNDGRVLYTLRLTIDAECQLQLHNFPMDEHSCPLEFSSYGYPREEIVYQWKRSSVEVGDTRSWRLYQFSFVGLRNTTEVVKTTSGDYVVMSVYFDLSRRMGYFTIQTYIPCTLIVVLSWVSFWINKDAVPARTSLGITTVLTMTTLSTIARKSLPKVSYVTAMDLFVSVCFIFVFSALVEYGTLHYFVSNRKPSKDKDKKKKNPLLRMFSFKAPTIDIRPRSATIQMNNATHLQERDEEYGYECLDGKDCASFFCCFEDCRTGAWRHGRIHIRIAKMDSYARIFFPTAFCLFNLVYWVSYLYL

| SMILES | EC50 (GABAA α4β3δ; [1]) [nM] | Emax (GABAA α4β3δ; PAM mode, GABA EC20 10 μM) [%] | EC50 (GABAA α1β2γ2; [2]) [nM] | Emax (GABAA α1β2γ2; PAM mode) [%] | EC50 (GABAA α4β3δ) [nM] | EC50 (GABAA α1β2γ2) [nM] |
| --- | --- | --- | --- | --- | --- | --- |
| C#CC1([C@H]2CC[C@H]3[C@@H]4CC[C@@H]5C[C@](C)(O)CC[C@@H]5[C@H]4CC[C@]23C)COC1 [Example 22, (3R,5R,8R,9R,10S,13S,14S,17S)-17-(3-ethynyloxetan-3-yl)-3,13-dimethyl-2,4,5,6,7,8,9,10,11,12,14,15,16,17-tetradecahydro-1H-cyclopenta[a]phenanthren-3-ol] | > 1500 | 50 to 90 | < 500 | > 90 | – | – |
| C[C@@]1(O)CC[C@H]2[C@H](CC[C@@H]3[C@@H]2CC[C@]2(C)[C@@H](C4COC4)CC[C@@H]32)C1 [Example 23, (3R,5R,8R,9R,10S,13S,14S,17R)-17-(oxetan-3-yl)-3,13-dimethyl-2,4,5,6,7,8,9,10,11,12,14,15,16,17-tetradecahydro-1H-cyclopenta[a]phenanthren-3-ol] | < 500 | 50 to 90 | < 500 | 50 to 90 | – | – |
| CC(=O)[C@H]1CC[C@H]2[C@@H]3CC[C@H]4C[C@H](O)CC[C@]4(C)[C@H]3CC[C@]12C [allopregnanolone, 5α-pregnane-3α-ol-20-one, reference compound] | – | > 90 | – | > 90 | < 500 | < 500 |
